Reference: US8080246B2, “Colony stimulating factor 1 receptor (CSF1R) extracellular domain fusion molecules” (Five Prime Therapeutics, Inc., priority 2008, dated 2011)
pIC50, pKd: −log10 of the molar value. Read-outs that look alike come from different tables or passages of the source.

Assays:
[1] = system: EAE mouse model; settings: for reduction in the EAE clinical score: relative to vehicle
Experimental: The CSF1R ECD fusion molecules were also tested for their ability to inhibit MS disease pathology in a mouse model of MS. These experiments used the mouse experimental autoimmune encephalomyelitis (EAE) model, which is widely used as a model of MS in humans. See, for example, Steinman and Zamvil, TRENDS in Immunology, 26(11):565-571 (2005). In the EAE model, disease progression and associated pathology may be measured according to the following EAE clinical score: no clinical disease (Score: 0); tail flaccidity (Score: 1); hind limb weakness (Score: 2); hind limb paralysis (Score: 3); forelimb paralysis or loss of ability to right from supine (stand up from a supine position) (Score: 4); and moribund (near death) or dead (Score: 5). […] The mCSF1R.506-Fc fusion protein (m506) was tested to determine whether it could decrease the EAE clinical scores or body weight loss. The mCSF1R.506-Fc fusion protein (SEQ ID NO.:8) was expressed and purified from the culture media of CHO cells stably transfected with the mCSF1R.506-Fc/pDEF38 plasmid vector as described in Example 2.
For the EAE mouse model experiments, 60 female C57BL/6 mice, age […], were divided into five groups: • Group 1: Vehicle control (Vehicle) (phosphate buffered saline, PBS), 100 μl, i.p., 3 times a week for up to 7 weeks; • Group 2: Methotrexate positive control (MTX), 10 mg/kg, i.v., q3d for up to 7 weeks; • Group 3: mCSF1R.506-Fc, 1 mg/kg, i.p., 3 times a week for up to 7 weeks; • Group 4: mCSF1R.506-Fc, 10 mg/kg, i.p., 3 times a week for up to 7 weeks; • Group 5: mCSF1R.506-Fc, 20 mg/kg, i.p., 3 times a week for up to 7 weeks.
Each group consisted of 12 mice. EAE induction was performed according to the following protocol: 300 ug of myelin oligodendrocyte glycoprotein (MOG)35-55 peptide was dissolved in 100 ul PBS and emulsified in an equal volume of complete Freund's adjuvant (CFA) containing 5 mg/ml Mycobacterium tuberculosis H37 RA. The emulsion (200 ul) was injected subcutaneously into the flank of the mice on days 0 and 7. Pertussis toxin (500 ng in 500 ul of PBS; List Biological Labs) was administered intravenously into each tail vein on days 0 and 2.
The MTX (10 mg/kg) was administered intravenously once every 3 days (q3d) for up to seven weeks starting on day 0; mCSF1R.506-Fc (1 mg/kg, 10 mg/kg, or 20 mg/kg), or vehicle (PBS) was administered intraperitoneally to the EAE mice in a 0.2 ml volume three times per week for 45 days, starting on day 0. The EAE clinical scores were measured prior to each dosing of PBS, MTX, or mCSF1R.506-Fc, using the above-mentioned scoring system. Body weights were recorded on day 0 before treatment was initiated, and were then measured at least twice per week including the day the study was terminated for seven weeks (on days 0, 2, 6, 8, 10, 13, 16, 17, 20, 22, 24, 27, 29, 31, 34, 36, 38, 41, 43, and 45).

[2] = system: CIA mouse model; experiment: Mouse collagen-induced arthritis (CIA) model, Example 9; type: in vivo; settings: relative to vehicle, p<0.01
[3] = system: CIA mouse model; experiment: Mouse collagen-induced arthritis (CIA) model, Example 13 (clinical score, histology, serum PYD); type: in vivo; settings: for clinical arthritis scores: FIG. 9; for serum pyridinoline (PYD) levels: vs vehicle control, ELISA, FIG. 12
[4] = system: human primary monocytes; experiment: Human monocyte viability (CellTiter-Glo ATP); type: cell-based; settings: four days incubation; ATP levels; protein from 293-6E cells; read-out: IC50, inhibition of human monocyte viability
Experimental: Primary monocytes were isolated from human peripheral blood mononuclear cells (PBMC) through size sedimentation over Percoll columns as described (de Almeida et al., Mem Inst Oswaldo Cruz 95(2):221-223, (2000)). In this experiment, 1×10^4 freshly isolated human primary monocytes per well of a 96-well plate were incubated with the hCSF1R.506-GS-Fc or hCSF1R.512-GS-Fc fusion protein (0.01-120 nM) and the cells were incubated at 37° C. with 5% CO2. After four days, ATP levels in the cells were determined using the CellTiter-Glo Luminescent Cell Viability Assay Kit (Promega, Cat. No. G7571), according to the manufacturer's instructions, as a measurement of cell viability.

[5] = target: T1, CSF1 (Homo sapiens, UniProt P09603); experiment: Biacore SPR CSF1 ligand binding affinity and kinetics; settings: proteins expressed in CHO cells; Biacore (Table 4)
T1 sequence (P09603 33-554): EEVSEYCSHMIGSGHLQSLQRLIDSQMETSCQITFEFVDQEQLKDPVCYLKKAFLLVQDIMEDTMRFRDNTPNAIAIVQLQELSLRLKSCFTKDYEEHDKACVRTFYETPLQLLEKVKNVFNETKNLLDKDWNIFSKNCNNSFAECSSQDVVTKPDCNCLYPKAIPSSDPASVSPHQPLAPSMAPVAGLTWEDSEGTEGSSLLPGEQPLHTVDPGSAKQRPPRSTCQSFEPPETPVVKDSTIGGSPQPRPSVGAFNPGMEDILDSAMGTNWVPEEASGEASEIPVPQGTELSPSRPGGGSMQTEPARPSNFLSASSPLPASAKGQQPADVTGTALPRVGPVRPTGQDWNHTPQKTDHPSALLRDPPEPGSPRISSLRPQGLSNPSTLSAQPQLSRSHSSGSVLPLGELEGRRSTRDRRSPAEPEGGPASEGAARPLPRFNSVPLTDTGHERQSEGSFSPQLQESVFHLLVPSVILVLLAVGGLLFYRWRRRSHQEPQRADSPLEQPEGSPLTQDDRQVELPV
Experimental: The CSF1 and IL34 ligand binding affinity and kinetics of the hCSF1R.506-GS-Fc and hCSF1R.512-GS-Fc fusion proteins were determined using Biacore® X surface plasmon resonance (SPR) technology (Uppsala, Sweden). CSF1 and IL34 are the only two ligands known to interact with the CSF1R ECD. The CSF1 and IL34 binding experiments were carried out using methodology similar to that described in Lin et al., Science 320:807-811, (2008).
In order to compare the relative ligand binding affinity of hCSF1R.506 (SEQ ID NO:2) and hCSF1R.506-Fc (SEQ ID NO:6) proteins expressed in CHO cells to CSF1, a Biacore® assay was used.

[6] = system: CD115+ GR1- monocytes in the spleen; experiment: Depletion of CD115+ GR1- monocytes from spleen (flow cytometry); type: in vivo, mouse; settings: DBA1 mice, 20 mg/kg i.p. 3 times per week, two weeks
Experimental: Male DBA1 mice were administered i.p. 3 times per week with saline or mCSF1R.506-Fc protein (SEQ ID NO:34) at 20 mg/kg. After two weeks of treatment, spleens were harvested for analysis of monocytes by flow cytometry as described (Liu et al., Science 324: 392 (2009)). Cells were stained at 4° C. in PBS with 5% (vol/vol) FBS. An LSR II (Becton Dickinson) was used for multiparameter flow cytometry of stained cell suspensions, followed by analysis with FlowJo software (TreeStar).

[7] = system: peripheral blood monocytes (F4/80+, CD11b+); experiment: Depletion of mouse monocytes from peripheral blood after minicircle DNA tail vein transfection; type: in vivo; settings: C57BL/6 mouse; 30 ug minicircle DNA by hydrodynamic tail vein transfection; about three weeks; vs saline
Experimental: The mCSF1R.506-GS-Fc fusion protein (SEQ ID NO.:34) was expressed in vivo to determine whether it could deplete mouse monocytes from peripheral blood as a measure of in vivo biological activity. For these experiments, the minicircle DNA vector (mCSF1R.506-GS-Fc/p2xC31MasterSfi) containing the polynucleotides encoding mCSF1R.506-GS-Fc described in Example 1 was employed. For these experiments, 30 ug of CSF1R.506-GS-Fc-encoding minicircle DNA was injected into a C57BL/6 mouse tail vein by hydrodynamic tail vein transfection (TVT) as described (Ozaki et al., J Immunol, 173(9):5361-5371 (2004)). Saline was injected as a negative control. Approximately three weeks after the tail vein injection, peripheral blood cells were isolated and monocyte levels were determined using FACS analysis with anti-CD11b and anti-F4/80 antibodies according to the manufacturer's instruction (BD Biosciences) to detect monocyte marker-positive cells (F4/80^+, CD11b^+).

With `CN(Cc1cnc2nc(N)nc(N)c2n1)c1ccc(C(=O)N[C@@H](CCC(=O)O)C(=O)O)cc1` [MTX, Methotrexate, reference compound] the “reduction in the EAE clinical score” value ([1]; 10 mg/kg i.v. q3d, p<0.001) was 95%.

ENBREL® [reference compound] was tested, and the “inhibition of CIA arthritis score” value ([2]; 10 mg/kg i.p. twice weekly for 34 days) was “about 40%”, the clinical arthritis scores ([3]; 10 mg/kg i.p. daily) was “inhibited clinical scores” and the “serum pyridinoline (PYD) levels” value ([3]; CIA mice) was “not significant statistically”.

Work on “hCSF1R.506-GS-Fc: Human CSF1R ECD lacking the six C-terminal residues fused to GS-Fc; SEQ ID NO. 32” yielded a pIC50 [4] of 8.06.

“hCSF1R.506: human CSF1R ECD corresponding to SEQ ID NO.:2 (amino acids 1-506), without fusion partner” was tested, and the pKd [5] was 7.54, the “ka, binding to CSF1” value [5] was 2.80E+04 l/Ms and the kd, binding to CSF1 [5] was 0.000809 s⁻¹.

“hCSF1R.512-GS-Fc: Full-length human CSF1R ECD fused to GS-Fc; SEQ ID NO. 31” showed a pIC50 [4] of 7.76.

With “mCSF1R.506-Fc: Mouse CSF1R ECD lacking the five C-terminal residues fused to an Fc; SEQ ID NO. 8” the “reduction in the EAE clinical score” value ([1]; 1 mg/kg i.p. 3 times a week, p<0.001) was 55%, the “reduction in the EAE clinical score” value ([1]; 10 mg/kg i.p. 3 times a week, p<0.01) was 40% and the “reduction in the EAE clinical score” value ([1]; 20 mg/kg i.p. 3 times a week, p<0.001) was 78%. For the same molecule, the “higher body weight relative to vehicle control” value ([1]; EAE mice, average of three doses (1, 10, 20 mg/kg), p<0.01-0.001) was 8%, the “reduction of CIA arthritis score” value ([2]; 20 mg/kg i.p. daily for 34 days) was “about 75%” and the “decrease in number of CD115+GR1- cells per spleen” value ([6]; FIG. 14) was “more than 50%”. For the same molecule, the “CD115+GR1- monocytes in the spleen” value ([6]; vs saline, FIG. 13) was “significant reduction”, the “inflammation, pannus formation, cartilage damage, bone resorption scores” value ([3]; 2 mg/kg, 6 mg/kg and 20 mg/kg, compared to vehicle treated mice, FIG. 11) was “significantly decreased inflammation, pannus formation, cartilage damage, and bone resorption” and the clinical arthritis scores ([3]; 2, 6 and 20 mg/kg i.p., dose-dependent) was “significantly reduced clinical arthritis scores”. For the same molecule, the “pannus formation, cartilage damage, bone resorption in histologic joint sections” value ([3]; CIA mice, FIG. 10) was “significantly decreased pannus formation, cartilage damage, and bone resorption” and the “serum pyridinoline (PYD) levels” value ([3]; CIA mice) was “significantly lower”.

“mCSF1R.506-GS-Fc: Mouse CSF1R ECD lacking the five C-terminal residues fused to GS-Fc; SEQ ID NO. 34” was tested, and the “monocyte marker-positive cells (F4/80+, CD11b+) in peripheral blood” value [7] was “depletion of mouse monocytes from peripheral blood”.
